Results published in ChEMBL document CHEMBL1136146, “Pyrimidinone antibiotics--heterocyclic analogues with improved antibacterial spectrum” (Bioorg Med Chem Lett, 2003).
pIC50: −log10 of the molar value.

Legend:
[1] = tested on: Escherichia coli; experiment: Inhibitory activity tested against procaryotic translation in Escherichia coli S30 Extract System; type: functional, organism-based
[2] = tested on: Staphylococcus aureus; experiment: In vitro minimum inhibitory concentration against Staphylococcus aureus 133.; type: functional
[3] = organism: Oryctolagus cuniculus; experiment: Inhibitory activity tested against eucaryotic translation in Rabbit Reticulocyte Lysate System L 4540; type: functional
[4] = In vitro selectivity index was measured as IC50 eucaryotic translation/procaryotic translation; type: functional
[5] = tested on: Enterococcus faecium; experiment: Antibacterial activity against Enterococcus faecium 18531 was determined; type: functional
[6] = tested on: Staphylococcus aureus; experiment: Antibacterial activity against Staphylococcus aureus 133 was determined; type: functional
[7] = tested on: Staphylococcus epidermidis; experiment: Antibacterial activity against Staphylococcus epidermidis 18570 was determined; type: functional
[8] = Antibacterial activity against […] pneumoniae G9a was determined; type: functional
[9] = tested on: Enterococcus faecium; experiment: Antibacterial activity against Enterococcus faecium L 4001 was determined; type: functional
[10] = Antibacterial activity against […] pneumoniae 1707/4 was determined; type: functional

pIC50 [1]	MIC [2]	pIC50 [3]	Structure (SMILES)	other results
< 4.19	> 100 µg/mL	–	CN(C(=O)C[C@@H](N)c1cc(CN)on1)C1CN=C(NC(N)=O)NC1=O.Cl.Cl (stereo partly drawn)	–
5.49	25 µg/mL	–	Br.CN(C(=O)C[C@@H](N)CCCCN)C1CN=C(Nc2nc3ccccc3s2)NC1=O (stereo partly drawn)	–
6.00	50 µg/mL	–	Br.Cc1csc(NC2=NCC(N(C)C(=O)C[C@@H](N)CCCCN)C(=O)N2)n1 (stereo partly drawn)	–
> 7.00	< 0.1 µg/mL	> 7.00	Br.CN(C(=O)C[C@@H](N)CCCCN)C1CN=C(Nc2cnccn2)NC1=O (stereo partly drawn)	–
–	> 100 µg/mL	–	CC(=O)O.CN(C1=NCC(N(C)C(=O)C[C@@H](N)CCCCN)C(=O)N1)c1ccccn1 (stereo partly drawn)	–
< 4.19	50 µg/mL	–	CC(=O)O.CN(C(=O)C[C@@H](N)CCCCN)C1CN=C(Nc2cccnc2)NC1=O (stereo partly drawn)	–
6.30	0.05 µg/mL	5.55	CN(C(=O)C[C@@H](N)CCCCN)C1CN=C(NC(N)=O)NC1=O.Cl.Cl (stereo partly drawn)	Selectivity [4]: 5.3
–	0.2 µg/mL	–	CC(=O)O.CN(C(=O)C[C@@H](N)CCCCN)C1CN=C(Nc2ccccn2)NC1=O (stereo partly drawn)	–
–	< 0.05 µg/mL	7.15	CC(=O)O.CN(C(=O)C[C@@H](N)CCCN=C(N)N)C1CN=C(Nc2ccccn2)NC1=O (stereo partly drawn)	MIC [5]: > 64 µg/mL; ED100 [6]: 1 mg/kg; MIC [6]: 0.5 µg/mL; MIC [7]: 0.25 µg/mL; MIC [8]: 2 µg/mL; MIC [9]: 2 µg/mL; MIC [10]: 2 µg/mL
4.49	50 µg/mL	–	CN(C(=O)C[C@@H](N)c1csc(CN)n1)C1CN=C(NC(N)=O)NC1=O.O=S(=O)(O)C(F)(F)F (stereo partly drawn)	–
–	100 µg/mL	–	CC(=O)O.CN(C(=O)C[C@@H](N)CCCCN)C1CN=C(Nc2ccccc2)NC1=O (stereo partly drawn)	–
> 7.30	0.4 µg/mL	7.00	Br.CN(C(=O)C[C@@H](N)CCCN=C(N)N)C1CN=C(Nc2ncccn2)NC1=O (stereo partly drawn)	Selectivity [4]: > 2
6.00	1.6 µg/mL	6.42	CN(C(=O)C[C@@H](N)CCCCN)C1CN=C(Nc2ncccn2)NC1=O.Cl.Cl (stereo partly drawn)	Selectivity [4]: 0.38
–	> 100 µg/mL	–	CN(C(=O)C[C@@H](N)CCCCN)C1CN=C(NC2=NCCCN2)NC1=O.Cl.Cl (stereo partly drawn)	–
–	100 µg/mL	–	CN(C(=O)C[C@@H](N)CSCCN)C1CN=C(NC(N)=O)NC1=O.Cl.Cl (stereo partly drawn)	–
7.30	6.3 µg/mL	7.30	CC(=O)O.CN(C(=O)C[C@@H](N)CCCCN)C1CN=C(Nc2ccc3ccccc3n2)NC1=O (stereo partly drawn)	Selectivity [4]: 1
4.80	100 µg/mL	–	CN(C(=O)C[C@@H](N)c1csc(CCN)n1)C1CN=C(NC(N)=O)NC1=O.O=S(=O)(O)C(F)(F)F (stereo partly drawn)	–
6.52	0.1 µg/mL	6.77	CN(C(=O)C[C@@H](N)CCCN=C(N)N)C1CN=C(NC(N)=O)NC1=O.Cl.Cl (stereo partly drawn)	MIC [5]: > 16 µg/mL; Selectivity [4]: 0.57; ED100 [6]: 0.25 mg/kg; MIC [6]: 0.25 µg/mL; MIC [7]: 0.25 µg/mL; MIC [8]: 16 µg/mL; MIC [9]: 2 µg/mL; MIC [10]: 32 µg/mL
6.00	50 µg/mL	–	CC(=O)O.CN(C(=O)C[C@@H](N)CCCCN)C1CN=C(Nc2nc3ccccc3[nH]2)NC1=O (stereo partly drawn)	–
–	> 100 µg/mL	–	CN(C(=O)C[C@@H](N)CS(=O)(=O)CCN)C1CN=C(NC(N)=O)NC1=O.Cl.Cl (stereo partly drawn)	–
7.00	0.1 µg/mL	7.00	CC(=O)O.CN(C(=O)C[C@@H](N)CCCN=C(N)N)C1CN=C(Nc2ccc3ccccc3n2)NC1=O (stereo partly drawn)	MIC [5]: > 16 µg/mL; Selectivity [4]: 1; MIC [6]: 0.5 µg/mL; MIC [7]: 0.25 µg/mL; MIC [9]: 8 µg/mL; MIC [10]: 8 µg/mL
